Values quoted from earlier work as cited in article PMC11776332 (Virology Journal, 2025).

Test system: HIV-1

SMILES: C=C(C)[C@@H]1CC[C@]2(NCCN3CCS(=O)(=O)CC3)CC[C@]3(C)[C@H](CC[C@@H]4[C@@]5(C)CC=C(C6=CC[C@@](CF)(C(=O)O)CC6)C(C)(C)[C@@H]5CC[C@]43C)[C@@H]12 [GSK3640254]
- IC50 compared with CV-10240: lower IC50 than CV-10240
